Tests used:
[1] = target: Recombinant human Cbl-b (aa 36-427) (Homo sapiens, UniProt Q13191); experiment: Cbl-b Biochemical Assay (TR-FRET); conditions: read-out: TR-FRET hCbl-b IC50
[2] = target: T1, Recombinant human c-Cbl (aa 47-435) (Homo sapiens, UniProt P22681); experiment: c-Cbl Biochemical Assay (TR-FRET); conditions: hc-Cbl Biochemical Assay (TR-FRET); read-out: TR-FRET hcCbl IC50
T1 sequence (P22681 47-435): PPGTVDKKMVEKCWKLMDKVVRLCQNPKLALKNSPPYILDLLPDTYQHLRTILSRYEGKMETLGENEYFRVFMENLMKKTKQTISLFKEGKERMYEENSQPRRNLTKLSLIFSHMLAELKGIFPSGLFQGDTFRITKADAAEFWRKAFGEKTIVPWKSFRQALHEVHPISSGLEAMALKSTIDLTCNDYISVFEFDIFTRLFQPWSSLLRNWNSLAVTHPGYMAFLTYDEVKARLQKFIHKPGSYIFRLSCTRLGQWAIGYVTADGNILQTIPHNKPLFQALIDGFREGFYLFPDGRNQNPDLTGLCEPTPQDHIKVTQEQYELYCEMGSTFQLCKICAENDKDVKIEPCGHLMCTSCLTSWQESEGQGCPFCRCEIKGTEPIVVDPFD

Sequence of Recombinant human Cbl-b (aa 36-427) (Q13191 36-427): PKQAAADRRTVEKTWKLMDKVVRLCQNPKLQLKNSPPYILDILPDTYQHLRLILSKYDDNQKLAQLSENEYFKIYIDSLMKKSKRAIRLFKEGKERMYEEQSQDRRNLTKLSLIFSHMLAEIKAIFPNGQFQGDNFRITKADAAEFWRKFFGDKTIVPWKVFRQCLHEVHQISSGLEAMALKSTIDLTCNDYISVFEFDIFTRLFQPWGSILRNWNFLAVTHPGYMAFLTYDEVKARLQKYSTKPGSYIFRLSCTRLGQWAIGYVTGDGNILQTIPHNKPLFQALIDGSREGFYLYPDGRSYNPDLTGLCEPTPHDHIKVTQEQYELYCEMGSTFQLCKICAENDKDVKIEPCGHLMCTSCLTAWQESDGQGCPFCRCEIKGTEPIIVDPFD

Structure (SMILES)	IC50 [1]	IC50 [2]
COC(OC)c1ccc2oc(-c3cccc(-c4ccc(F)cc4-c4nncn4C)c3)nc2c1 [AT-1, 5-(Dimethoxymethyl)-2-(4′-fluoro-2′-(4-methyl-4H-1,2,4-triazol-3-yl)-[1,1′-biphenyl]-3-yl)benzo[d]oxazole]	10 to 50 µM	10 to 50 µM
Cn1cnnc1-c1cc(C#N)ccc1-c1cccc(-c2nc3cccc(C(F)(F)F)c3o2)c1 [AU-1, 2-(4-Methyl-4H-1,2,4-triazol-3-yl)-3′-(7-(trifluoromethyl)benzo[d]oxazol-2-yl)-[1,1′-biphenyl]-4-carbonitrile]	0.2 to 1 µM	10 to 50 µM
CC(Cc1nncn1C)c1cccc(-c2nc3ccc(OCCN(C)C)c(C(F)(F)F)c3[nH]2)c1 (stereo not drawn) [AW-4, N,N-dimethyl-2-((2-(3-(1-(4-methyl-4H-1,2,4-triazol-3-yl)propan-2-yl)phenyl)-7-(trifluoromethyl)-1H-benzo[d]imidazol-6-yl)oxy)ethan-1-amine]	10 to 50 µM	10 to 50 µM
CC(Cc1nncn1C)c1cccc(-c2nc3ccc(OCCN4CCCC4)c(C(F)(F)F)c3[nH]2)c1 (stereo not drawn) [AX-3, 2-(3-(1-(4-Methyl-4H-1,2,4-triazol-3-yl)propan-2-yl)phenyl)-6-(2-(pyrrolidin-1-yl)ethoxy)-7-(trifluoromethyl)-1H-benzo[d]imidazole]	10 to 50 µM	10 to 50 µM
CN(C)CCOc1ccc2nc(-c3cccc(C4(Cc5nncn5C)COC4)c3)[nH]c2c1C(F)(F)F [AZ-1, N,N-Dimethyl-2-((2-(3-(3-((4-methyl-4H-1,2,4-triazol-3-yl)methyl)oxetan-3-yl)phenyl)-7-(trifluoromethyl)-1H-benzo[d]imidazol-6-yl)oxy)ethan-1-amine]	10 to 50 µM	10 to 50 µM
Cn1cnnc1CC1(c2cccc(-c3nc4ccc(Br)c(C(F)(F)F)c4[nH]3)c2)COC1 [BA-1, 6-Bromo-2-(3-(3-((4-methyl-4H-1,2,4-triazol-3-yl)methyl)oxetan-3-yl)phenyl)-7-(trifluoromethyl)-1H-benzo[d]imidazole]	1 to 10 µM	10 to 50 µM
Cn1cnnc1-c1ccccc1-c1cccc(-c2nc3ccc(N)c(C(F)(F)F)c3[nH]2)c1 [BE-2, 2-(2′-(4-Methyl-4H-1,2,4-triazol-3-yl)-[1,1′-biphenyl]-3-yl)-7-(trifluoromethyl)-1H-benzo[d]imidazol-6-amine]	10 to 50 µM	10 to 50 µM
Cn1cnnc1-c1ccccc1-c1cccc(-c2nc3ccc(OCCN4CCCC4)c(C(F)(F)F)c3[nH]2)c1 [BG-1, 2-(2′-(4-Methyl-4H-1,2,4-triazol-3-yl)-[1,1′-biphenyl]-3-yl)-6-(2-(pyrrolidine-1-yl)ethoxy)-7-(trifluoromethyl)-1H-benzo[d]imidazole]	10 to 50 µM	10 to 50 µM
CN1CC[C@@H](Oc2ccc3nc(-c4cccc(-c5ccccc5-c5nncn5C)c4)[nH]c3c2C(F)(F)F)C1 [BH-3, (R)-2-(2′-(4-Methyl-4H-1,2,4-triazol-3-yl)-[1,1′-biphenyl]-3-yl)-6-((1-methylpyrrolidin-3-yl)oxy)-7-(trifluoromethyl)-1H-benzo[d]imidazole]	10 to 50 µM	10 to 50 µM
Cn1cnnc1-c1cc(F)ccc1-c1cccc(-c2nc3cccc(C(F)(F)F)c3[nH]2)c1 [BI-1, 2-(4′-Fluoro-2′-(4-methyl-4H-1,2,4-triazol-3-yl)-[1,1′-biphenyl]-3-yl)-7-(trifluoromethyl)-1H-benzo[d]imidazole]	0.2 to 1 µM	10 to 50 µM
Cn1cnnc1-c1cc(F)ccc1-c1cccc(-c2nc3cc(CNC4(CO)COC4)cc(C(F)(F)F)c3[nH]2)c1 [BS-1, (3-(((2-(4′-Fluoro-2′-(4-methyl-4H-1,2,4-triazol-3-yl)-[1,1′-biphenyl]-3-yl)-7-(trifluoromethyl)-1H-benzo[d]imidazol-5-yl)methyl)amino)oxetan-3-yl)methanol]	< 0.2 µM	1 to 10 µM
Cn1cnnc1-c1cc(F)ccc1-c1cccc(-c2nc3cc(CO)ccc3[nH]2)c1 [BW-3, (2-(4′-Fluoro-2′-(4-methyl-4H-1,2,4-triazol-3-yl)-[1,1′-biphenyl]-3-yl)-1H-benzo[d]imidazol-5-yl)methanol]	10 to 50 µM	10 to 50 µM
Cn1cnnc1-c1cc(F)ccc1-c1cccc(-c2nc3cc(CNCC(C)(C)O)ccc3[nH]2)c1 [BX-2, 1-(((2-(4′-Fluoro-2′-(4-methyl-4H-1,2,4-triazol-3-yl)-[1,1′-biphenyl]-3-yl)-1H-benzo[d]imidazol-5-yl)methyl)amino)-2-methylpropan-2-ol]	0.2 to 1 µM	10 to 50 µM
Cn1cnnc1-c1cc(C#N)ccc1-c1cccc(-c2nc3cc(CO)cc(C(F)(F)F)c3[nH]2)c1 [BZ-1, 3′-(5-(Hydroxymethyl)-7-(trifluoromethyl)-1H-benzo[d]imidazol-2-yl)-2-(4-methyl-4H-1,2,4-triazol-3-yl)-[1,1′-biphenyl]-4-carbonitrile]	1 to 10 µM	10 to 50 µM
Cn1cnnc1-c1cc(C#N)ccc1-c1cccc(-c2nc3cccc(C(F)(F)F)c3[nH]2)c1 [CB-1, 2-(4-Methyl-4H-1,2,4-triazol-3-yl)-3′-(4-(trifluoromethyl)-1H-benzo[d]imidazol-2-yl)-[1,1′-biphenyl]-4-carbonitrile]	10 to 50 µM	10 to 50 µM
Cn1cnnc1CC1(c2cccc(-c3cc(C(F)(F)F)cn(C)c3=O)c2)COC1 [CF-2, 1-Methyl-3-(3-(3-((4-methyl-4H-1,2,4-triazol-3-yl)methyl)oxetan-3-yl)phenyl)-5-(trifluoromethyl)pyridin-2(1H)-one]	10 to 50 µM	10 to 50 µM
COC(=O)c1[nH]c(=O)c(-c2cccc(-c3ccccc3-c3nncn3C)c2)cc1C(F)(F)F [CH-2, Methyl 5-(2′-(4-methyl-4H-1,2,4-triazol-3-yl)-[1,1′-biphenyl]-3-yl)-6-oxo-3-(trifluoromethyl)-1,6-dihydropyridine-2-carboxylate]	10 to 50 µM	10 to 50 µM
CCN(Cc1cc(C(F)(F)F)c2oc(-c3cccc(-c4ccc(F)cc4-c4nncn4C)c3)nc2c1)CC1(C#N)CCCC1 [CO-2, 1-((Ethyl((2-(4′-fluoro-2′-(4-methyl-4H-1,2,4-triazol-3-yl)-[1,1′-biphenyl]-3-yl)-7-(trifluoromethyl)benzo[d]oxazol-5-yl)methyl)amino)methyl)cyclopentane-1-carbonitrile]	< 0.2 µM	1 to 10 µM
Cn1cnnc1-c1cc(F)ccc1-c1cccc(-c2nc3cc(C(=O)N[C@@H]4CCC[C@@H]4O)cc(C(F)(F)F)c3o2)c1 [DB-2, 2-(4′-Fluoro-2′-(4-methyl-4H-1,2,4-triazol-3-yl)-[1,1′-biphenyl]-3-yl)-N-((1R,2S)-2-hydroxycyclopentyl)-7-(trifluoromethyl)benzo[d]oxazole-5-carboxamide]	0.2 to 1 µM	1 to 10 µM
Cn1cnnc1-c1cc(F)ccc1-c1cccc(-c2nc3ccc(CO)cc3o2)c1 [DC-3, (2-(4′-Fluoro-2′-(4-methyl-4H-1,2,4-triazol-3-yl)-[1,1′-biphenyl]-3-yl)benzo[d]oxazol-6-yl)methanol]	1 to 10 µM	10 to 50 µM
CC(=O)c1cc(C(F)(F)F)c2oc(-c3cccc(-c4ccc(F)cc4-c4nncn4C)c3)nc2c1 [DK-1, 1-(2-(4′-Fluoro-2′-(4-methyl-4H-1,2,4-triazol-3-yl)-[1,1′-biphenyl]-3-yl)-7-(trifluoromethyl)benzo[d]oxazol-5-yl)ethan-1-one]	< 0.2 µM	1 to 10 µM

Source: patent US20250163038A1, “CBL-B MODULATORS AND USES THEREOF” (Nimbus Clio, Inc., priority 2021, published 2025)
